Experimental data reported in PubChem BioAssay (NCI).
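Cells were grown in 96-well plates and exposed to each compound for 48 hours at five concentrations; endpoints were interpolated linearly between bracketing concentrations, or set to the highest concentration if not reached. The concentration for 50% growth inhibition is given as GI50. Definition used: TGI = concentration required for complete inhibition of growth.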

Assays:
Test in all cases: NCI anticancer screen, dose series, 48 h
PC-3 prostate = test system: PC-3 prostate
COLO 205 colon = test system: COLO 205 colon
UACC-257 melanoma = test system: UACC-257 melanoma
MDA-MB-435 = test system: MDA-MB-435
ACHN renal = test system: ACHN renal
A549 NSCLC = test system: A549 NSCLC
M14 melanoma = test system: M14 melanoma
NCI-H460 lung = test system: NCI-H460 lung
K-562 leukemia = test system: K-562 leukemia
HL-60(TB) leukemia = test system: HL-60(TB) leukemia
HCT-116 colon = test system: HCT-116 colon
SR leukemia = test system: SR leukemia
MDA-MB-231 breast = test system: MDA-MB-231 breast
OVCAR-3 ovarian = test system: OVCAR-3 ovarian
MALME-3M melanoma = test system: MALME-3M melanoma
DU-145 prostate = test system: DU-145 prostate
NCI-H522 lung = test system: NCI-H522 lung
SF-295 CNS = test system: SF-295 CNS
786-0 renal = test system: 786-0 renal
HOP-92 NSCLC = test system: HOP-92 NSCLC
OVCAR-8 ovarian = test system: OVCAR-8 ovarian
OVCAR-5 ovarian = test system: OVCAR-5 ovarian
BT-549 breast = test system: BT-549 breast
A498 renal = test system: A498 renal
RXF 393 renal = test system: RXF 393 renal
RPMI-8226 leukemia = test system: RPMI-8226 leukemia
HCT-15 colon = test system: HCT-15 colon
SK-OV-3 ovarian = test system: SK-OV-3 ovarian
LOX IMVI melanoma = test system: LOX IMVI melanoma
MOLT-4 leukemia = test system: MOLT-4 leukemia
SK-MEL-5 melanoma = test system: SK-MEL-5 melanoma
OVCAR-4 ovarian = test system: OVCAR-4 ovarian
TK-10 renal = test system: TK-10 renal
UO-31 renal = test system: UO-31 renal
HCC-2998 colon = test system: HCC-2998 colon
NCI-H226 lung = test system: NCI-H226 lung
SW-620 colon = test system: SW-620 colon
SF-268 CNS = test system: SF-268 CNS
U251 CNS = test system: U251 CNS
HOP-62 NSCLC = test system: HOP-62 NSCLC
KM12 colon = test system: KM12 colon
HT29 colon = test system: HT29 colon
NCI/ADR-RES ovarian = test system: NCI/ADR-RES ovarian
SF-539 CNS = test system: SF-539 CNS
SN12C renal = test system: SN12C renal
SNB-19 CNS = test system: SNB-19 CNS
SNB-75 CNS = test system: SNB-75 CNS
CCRF-CEM leukemia = test system: CCRF-CEM leukemia
SK-MEL-28 melanoma = test system: SK-MEL-28 melanoma
NCI-H23 lung = test system: NCI-H23 lung
HS 578T breast = test system: HS 578T breast
SK-MEL-2 melanoma = test system: SK-MEL-2 melanoma
EKVX NSCLC = test system: EKVX NSCLC
IGROV1 ovarian = test system: IGROV1 ovarian
MCF7 breast = test system: MCF7 breast
UACC-62 melanoma = test system: UACC-62 melanoma

For `COc1ccc(/C=C(/C(=O)N2CCN(c3ccccc3)CC2)c2cc(OC)c(OC)c(OC)c2)cc1N`, the GI50 (PC-3 prostate) was 0.414 µM, the TGI (PC-3 prostate) was over 100 µM and the GI50 (COLO 205 colon) was 0.362 µM. For the same compound, the TGI (COLO 205 colon) was 2.43 µM, the GI50 (UACC-257 melanoma) was 3.65 µM and the TGI (UACC-257 melanoma) was over 100 µM. The GI50 (MDA-MB-435) was 0.138 µM, the TGI (MDA-MB-435) was 0.419 µM and the GI50 (ACHN renal) was 0.612 µM. For the same compound, the TGI (ACHN renal) was over 100 µM, the GI50 (A549 NSCLC) was 0.68 µM and the TGI (A549 NSCLC) was over 100 µM. For the same compound, the GI50 (M14 melanoma) was 0.254 µM, the TGI (M14 melanoma) was 3.58 µM and the GI50 (NCI-H460 lung) was 0.364 µM. For the same compound, the TGI (NCI-H460 lung) was over 100 µM, the GI50 (K-562 leukemia) was 0.316 µM and the TGI (K-562 leukemia) was over 100 µM. The GI50 (HL-60(TB) leukemia) was 0.241 µM, the TGI (HL-60(TB) leukemia) was 0.596 µM and the GI50 (HCT-116 colon) was 0.356 µM. The TGI (HCT-116 colon) was over 100 µM, the GI50 (SR leukemia) was 0.409 µM and the TGI (SR leukemia) was over 100 µM. The GI50 (MDA-MB-231 breast) was 0.411 µM, the TGI (MDA-MB-231 breast) was 24.4 µM and the GI50 (OVCAR-3 ovarian) was 0.366 µM. The TGI (OVCAR-3 ovarian) was over 100 µM, the GI50 (MALME-3M melanoma) was 12.2 µM and the TGI (MALME-3M melanoma) was over 100 µM. For the same compound, the GI50 (DU-145 prostate) was 0.531 µM, the TGI (DU-145 prostate) was over 100 µM and the GI50 (NCI-H522 lung) was 0.242 µM. The TGI (NCI-H522 lung) was 0.91 µM, the GI50 (SF-295 CNS) was 0.342 µM and the TGI (SF-295 CNS) was over 100 µM. The GI50 (786-0 renal) was 0.766 µM, the TGI (786-0 renal) was over 100 µM and the GI50 (HOP-92 NSCLC) was 3.53 µM. It also gave a TGI (HOP-92 NSCLC) of over 100 µM, a GI50 (OVCAR-8 ovarian) of 0.375 µM and a TGI (OVCAR-8 ovarian) of over 100 µM. It also gave a GI50 (OVCAR-5 ovarian) of 0.569 µM, a TGI (OVCAR-5 ovarian) of over 100 µM and a GI50 (BT-549 breast) of 0.53 µM. The TGI (BT-549 breast) was over 100 µM, the GI50 (A498 renal) was 0.142 µM and the TGI (A498 renal) was 0.778 µM. The GI50 (RXF 393 renal) was 0.272 µM, the TGI (RXF 393 renal) was over 100 µM and the GI50 (RPMI-8226 leukemia) was 0.327 µM. The TGI (RPMI-8226 leukemia) was 12 µM, the GI50 (HCT-15 colon) was 0.388 µM and the TGI (HCT-15 colon) was over 100 µM. For the same compound, the GI50 (SK-OV-3 ovarian) was 0.472 µM, the TGI (SK-OV-3 ovarian) was over 100 µM and the GI50 (LOX IMVI melanoma) was 0.696 µM. For the same compound, the TGI (LOX IMVI melanoma) was over 100 µM, the GI50 (MOLT-4 leukemia) was 0.524 µM and the TGI (MOLT-4 leukemia) was over 100 µM. It also gave a GI50 (SK-MEL-5 melanoma) of 0.386 µM, a TGI (SK-MEL-5 melanoma) of 10.9 µM and a GI50 (OVCAR-4 ovarian) of 3.05 µM. For the same compound, the TGI (OVCAR-4 ovarian) was over 100 µM, the GI50 (TK-10 renal) was 72.1 µM and the TGI (TK-10 renal) was over 100 µM. For the same compound, the GI50 (UO-31 renal) was 0.812 µM, the TGI (UO-31 renal) was over 100 µM and the GI50 (HCC-2998 colon) was 0.556 µM. The TGI (HCC-2998 colon) was over 100 µM, the GI50 (NCI-H226 lung) was 3.2 µM and the TGI (NCI-H226 lung) was over 100 µM. The GI50 (SW-620 colon) was 0.401 µM, the TGI (SW-620 colon) was over 100 µM and the GI50 (SF-268 CNS) was 0.711 µM. It also gave a TGI (SF-268 CNS) of over 100 µM, a GI50 (U251 CNS) of 0.361 µM and a TGI (U251 CNS) of over 100 µM. For the same compound, the GI50 (HOP-62 NSCLC) was 0.429 µM, the TGI (HOP-62 NSCLC) was over 100 µM and the GI50 (KM12 colon) was 0.423 µM. For the same compound, the TGI (KM12 colon) was over 100 µM, the GI50 (HT29 colon) was 0.366 µM and the TGI (HT29 colon) was 13.3 µM. It also gave a GI50 (NCI/ADR-RES ovarian) of 0.623 µM, a TGI (NCI/ADR-RES ovarian) of over 100 µM and a GI50 (SF-539 CNS) of 0.223 µM. It also gave a TGI (SF-539 CNS) of 0.797 µM, a GI50 (SN12C renal) of 0.643 µM and a TGI (SN12C renal) of over 100 µM. For the same compound, the GI50 (SNB-19 CNS) was 0.444 µM, the TGI (SNB-19 CNS) was over 100 µM and the GI50 (SNB-75 CNS) was 0.22 µM. It also gave a TGI (SNB-75 CNS) of over 100 µM, a GI50 (CCRF-CEM leukemia) of 0.301 µM and a TGI (CCRF-CEM leukemia) of over 100 µM. For the same compound, the GI50 (SK-MEL-28 melanoma) was 1.47 µM, the TGI (SK-MEL-28 melanoma) was over 100 µM and the GI50 (NCI-H23 lung) was 2.18 µM. It also gave a TGI (NCI-H23 lung) of over 100 µM, a GI50 (HS 578T breast) of 0.357 µM and a TGI (HS 578T breast) of over 100 µM. For the same compound, the GI50 (SK-MEL-2 melanoma) was 0.725 µM, the TGI (SK-MEL-2 melanoma) was over 100 µM and the GI50 (EKVX NSCLC) was 0.561 µM. For the same compound, the TGI (EKVX NSCLC) was over 100 µM, the GI50 (IGROV1 ovarian) was 0.697 µM and the TGI (IGROV1 ovarian) was over 100 µM. The GI50 (MCF7 breast) was 0.326 µM, the TGI (MCF7 breast) was over 100 µM and the GI50 (UACC-62 melanoma) was 0.272 µM. The TGI (UACC-62 melanoma) was over 100 µM.
